This passage reports IC50 and IC50 fold change results from paper PMC3014449 (Molecular immunology, 2010).

The test relates to classical pathway activation of complement in human serum. The test is described as follows: Inhibition of complement activation. The format is biochemical. The conditions noted are these: NA: not active at the highest concentrations tested; for IC50: complement inhibition assay, initiation via the classical pathway, human serum; for IC50 fold change: relative to peptide 1.

Turning to Ac-I[C(NMe)VYQDWGAHRC]T-NH2 [Peptide 3], the IC50 entry is “completely inactive”.

Turning to Ac-I[CV(NMe)YQDWGAHRC]T-NH2 [Peptide 4], the IC50 entry was “completely inactive”.

On to Ac-I[CVY(NMe)QDWGAHRC]T-NH2 [Peptide 5], for which the half-inhibitory concentration (IC50) is 33 µM and the IC50 fold change is 0.07.

In the case of Ac-I[CVYQ(NMe)DWGAHRC]T-NH2 [Peptide 6], the 50% inhibitory concentration (IC50) came to 44 µM and the IC50 fold change stood at 0.06.

Turning to Ac-I[CVYQD(NMe)WGAHRC]T-NH2 [Peptide 7], 25 µM corresponded to half-maximal inhibition (IC50) and the IC50 fold change is 0.1.

On to Ac-I[CVYQDW(NMe)GAHRC]T-NH2 [Peptide 8], for which the IC50 is 1.43 µM and the IC50 fold change turned out to be 1.7.

With Ac-I[CVYQDWG(NMe)AHRC]T-NH2 [Peptide 9], the IC50 entry is “completely inactive”.

As to “Ac-I[CVYQDWGA(NMe)HRC]T-NH2 [Peptide 10]”, half-maximal inhibition (IC50) was put at 94 µM and the IC50 fold change turned out to be 0.03.

For the substance “Ac-I[CVYQDWGAH(NMe)RC]T-NH2 [Peptide 11]”, inhibition was half-maximal at 32 µM (IC50) and the IC50 fold change was found to be 0.08.

As for “Ac-I[CVYQDWGAHR(NMe)C]T-NH2 [Peptide 12]”, half-maximal inhibition (IC50) was put at 154 µM and the IC50 fold change worked out at 0.02.
